Experimental data as given in ChEMBL document CHEMBL3112412, “Synthesis and receptor binding studies of some new arylcarboxamide derivatives as sigma-1 ligands” (Bioorg Med Chem Lett, 2014).

What was measured:
[1] = molecular target: Sigma non-opioid intracellular receptor 1 (Rattus norvegicus, UniProt Q9R0C9); test: Displacement of [3H](+)-pentazocine from sigma 1 receptor in rat liver homogenate after 120 mins by liquid scintillation counting; type: tissue-based
[2] = Displacement of [3H]-DTG from sigma 2 receptor in guinea pig brain after 120 mins by liquid scintillation counting; parameters: species or system Cavia porcellus
[3] = Selectivity ratio of Ki for sigma 2 receptor in guinea pig brain to Ki for sigma 1 receptor in rat liver homogenate; type: tissue-based

Chain of Sigma non-opioid intracellular receptor 1 (Q9R0C9 whole entry): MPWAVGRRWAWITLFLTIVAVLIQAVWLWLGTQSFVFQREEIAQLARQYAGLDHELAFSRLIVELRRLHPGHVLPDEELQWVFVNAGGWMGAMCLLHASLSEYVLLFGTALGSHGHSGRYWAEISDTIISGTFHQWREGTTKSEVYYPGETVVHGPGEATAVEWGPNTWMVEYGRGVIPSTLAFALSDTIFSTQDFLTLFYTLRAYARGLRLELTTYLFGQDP

## CCN(CC1CCN(Cc2ccccc2)CC1)C(=O)c1ccc(OC)cc1
[1]
  Ki: 0.192 µM

## CCN(CC1CCN(Cc2ccc(Cl)cc2)CC1)C(=O)c1ccc(Cl)cc1
[1]
  Ki: 0.091 µM
[2]
  Ki: > 1 µM
[3]
  Ratio Ki: > 11

## CCN(CC1CCN(Cc2ccccc2)CC1)C(=O)c1ccccc1
[1]
  Ki: 0.0668 µM

## CCN(CC1CCN(Cc2ccc(Cl)cc2)CC1)C(=O)c1ccc(C)cc1
[1]
  Ki: 0.14 µM
[2]
  Ki: > 0.5 µM
[3]
  Ratio Ki: > 3

## CCN(CC1CCN(Cc2ccccc2)CC1)C(=O)c1ccco1
[1]
  Ki: 0.0212 µM
[2]
  Ki: > 3 µM
[3]
  Ratio Ki: > 140

## CCN(CC1CCN(Cc2ccccc2)CC1)C(=O)c1ccc(-c2ccccc2)cc1
[1]
  Ki: 0.301 µM
[2]
  Ki: > 0.5 µM
[3]
  Ratio Ki: > 1

## CCN(CC1CCN(Cc2ccc(Cl)cc2)CC1)C(=O)c1ccc2ccccc2c1
[1]
  Ki: 0.225 µM

## CCN(CC1CCN(Cc2ccc(Cl)cc2)CC1)C(=O)c1ccc(OC)cc1
[1]
  Ki: 0.217 µM
[2]
  Ki: 0.283 µM
[3]
  Ratio Ki: 1.3

## CCN(CC1CCN(Cc2ccc(Cl)cc2)CC1)C(=O)c1cccc2ccccc12
[1]
  Ki: 0.215 µM
[2]
  Ki: > 1 µM
[3]
  Ratio Ki: > 4

## CCN(CC1CCN(Cc2ccccc2)CC1)C(=O)c1ccc(C)cc1
[1]
  Ki: 0.16 µM
[2]
  Ki: > 0.5 µM
[3]
  Ratio Ki: > 3

## CCN(CC1CCN(Cc2ccccc2)CC1)C(=O)c1ccc2ccccc2c1
[1]
  Ki: 0.198 µM
[2]
  Ki: 0.27 µM
[3]
  Ratio Ki: 1.36

## CCN(CC1CCN(Cc2ccc(Cl)cc2)CC1)C(=O)c1ccco1
[1]
  Ki: 0.0136 µM
[2]
  Ki: > 0.5 µM
[3]
  Ratio Ki: > 40

## CCN(CC1CCN(Cc2ccccc2)CC1)C(=O)c1cccc2ccccc12
[1]
  Ki: 0.161 µM
[2]
  Ki: > 1 µM
[3]
  Ratio Ki: > 6

## CCN(CC1CCN(Cc2ccccc2)CC1)C(=O)c1ccc(Cl)cc1
[1]
  Ki: 0.0591 µM
[2]
  Ki: > 1 µM
[3]
  Ratio Ki: > 17

## CCN(CC1CCN(Cc2ccc(Cl)cc2)CC1)C(=O)c1ccccc1
[1]
  Ki: 0.155 µM

## CCN(CC1CCN(Cc2ccc(Cl)cc2)CC1)C(=O)c1ccc(-c2ccccc2)cc1
[1]
  Ki: 0.373 µM
